# According to patent US11457625B1, “Tuning a broad acting antimicrobial textile to act as a narrow spectrum antimicrobial textile” (priority 2018, dated 2022):
# No end group written: not given here.
# Tests used:
# Staphylococcus aureus = experiment: Testing swatches for binding and antimicrobial activity (strain not distinguished); type: cell-based; conditions: for colonies counted (cells recovered from swatch), S. aureus: Cj peptide attached to swatches
# Experimental: (§1) Peptides were synthesized at New England peptides with the linker sequence of GGSGGS or GGSGG on the N terminal (Table 1). Textile swatches of cotton or cotton-nylon blends were cut to 1 cm circles and the surface hydroxyls were converted to carboxyl by submerging the swatches 1 hour with agitation at 300 rpm in 25 mL of citric acid buffer (7% citric acid, 5% Sodium Hypophosphate monohydrate). (Synthetic material such as nylon and polyester require a pretreatment with sodium hydroxide before the citric acid buffer is added) To cure the reaction, the swatches were heated in a microwave for 2 minutes. After curing, swatches were washed the in 25 mL of deionized water for 5 min. The swatches were activated by submerging in 30 mL of EDC solution (0.6372 g in 30 mL 200 mM monobasic sodium phosphate buffer pH) and incubating for 45 minutes with 300 rpm agitation. After incubation, swatches were rinsed in 25 mL 20 mM sodium phosphate buffer pH 7.2 for 5 minutes. During the wash, 5 ml peptide samples were prepare from a 2 mg/ml stock of peptide in 20 mM sodium phosphate solution at concentrations of […] 1.25 mg/g peptide. […] Each solution was added to one well of a six well microtiter plate. […] Swatches were washed in 20 mM phosphate buffer for 5 min, then wash for 5 min in water twice and allowed to air dry.
# (§2) Inoculation took place using an 8 ml overnight cultures for each target microorganisms in appropriate media. For Staphylococcus aureus, Staphylococcus epidermidis and Pseudomonas aeruginosa cultures were grown on Nutrient broth. For Corynebacterium jeikieson the media was Brain Heart Infusion supplemented with 0.1% Tween 80 and for Micrococcus luteus the media was Brain Heart Infusion media. The OD for each culture was taken and diluted to an OD of 1 using appropriate growth media. For each culture a 1 mL aliquot was taken and transfer to a clean 2 mL eppendorf tube. The tubes were placed into a micro centrifuge and spun at 10,000 G until a pellet has formed. The media was aspirated without disturbing the pellet and the pellet was re-suspend in 1 mL of 0.125× Nutrient Broth with 0.15% Triton X-100. This was repeated to wash pellets. The pellet was re-suspend in 1 ml of 0.125× Nutrient Broth with 0.15% Triton X-100 and the above centrifugation was performed again. After last wash, the pellet was re-suspended in 1 ml of 0.125× Nutrient Broth with 0.15% Triton X-100 then added to 8 mL of 0.125× Nutrient Broth with 0.15% Triton X-100. […] The inoculum was enumerated by adding 500 ul into 4.5 ml of PBS and serial diluting 7 more times. Counts were taken by spread plating only 10^−6, 10^−7 and 10^−8.
# (§3) Swatches prepared previously were inoculated with 25 ul of the inoculum (scoured samples will be used as a negative control). The inoculated swatches were incubated for 24 hr at 37° C. in a sealed tube. To analyze binding, the swatches were placed into 2.5 ml modified DE broth and vortex for 5 min. The modified DE broth was serial diluted 10^−3 by adding 500 ul to 4.5 ml phosphate buffer. The dilution was spread plated onto the appropriate growth media (mannitol salts for Staphylococcus aureus, nutrient agar for Staphylococcus epidermidis, Cetrimide agar for Pseudomonas aeruginosa, Brain heart infusion for Micrococcus luteus and Brain Heart infusion with 0.1% Tween 80 for Corynebacterium jeikeium) and incubate overnight.
# These concentration were chosen based upon result from previously described experiments. The treated fabric was evaluated against two different strains of Staphylococcus aureus (Table 5). […] A follow up experiment provide additional evidence for this possibility.
# (§4) An experiment was run using the same two Staphylococcus aureus strains 27217 and 25923 with the addition of Staphylococcus epidermidis. […]
# S. epidermidis 12228 = experiment: Testing swatches for binding and antimicrobial activity; type: cell-based, Staphylococcus epidermidis; conditions: for colonies counted (cells recovered from swatch), S. epidermidis: Cj peptide attached to swatches
# Experimental: as §1, §2, §3, §4
# (§5) The six potential peptides were attached to swatches and exposed to Corynebacterium jeikeium, Micrococcus luteus, Staphylococcus epidermidis, Staphylococcus aureus and Pseudomonas aeruginosa.
# Pseudomonas aeruginosa = experiment: as above; type: cell-based; conditions: for colonies counted (cells recovered from swatch), P. aeruginosa: Cj peptide attached to swatches
# Experimental: as §1, §2, §3
# Pseudomonas aeruginosa was examined using concentrations based upon the textile MIC.
# as §5
# Corynebacterium jeikeium = experiment: as above; type: cell-based; conditions: peptide attached to swatches
# Experimental: as §1, §2, §3, §5
# Micrococcus luteus = experiment: as above; type: cell-based; conditions: peptide attached to swatches
# Experimental: as §1, §2, §3, §5
# S aureus 27217 = experiment: as above; type: cell-based, Staphylococcus aureus; conditions: PHMB 0%, 24 hr 37° C.
# Experimental: as §1
# as §2, with “Counts were taken by spread plating only 10^−6, 10^−7 and 10^−8.” left out
# (§6) These concentration were chosen based upon result from previously described experiments. The treated fabric was evaluated against two different strains of Staphylococcus aureus (Table 5). […]
# S. aureus 25923 = experiment: as above; type: cell-based, Staphylococcus aureus; conditions: PHMB 0%, 24 hr 37° C.
# Experimental: as §1
# as §2, with “Counts were taken by spread plating only 10^−6, 10^−7 and 10^−8.” left out
# as §6
Sequence,"colonies counted (cells recovered from swatch), S. aureus (Staphylococcus aureus)","colonies counted (cells recovered from swatch), S. epidermidis (S. epidermidis 12228)","colonies counted (cells recovered from swatch), P. aeruginosa (Pseudomonas aeruginosa)","colonies counted (cells recovered from swatch), C. Jeikeium (Corynebacterium jeikeium)","colonies counted (cells recovered from swatch), M luteus (Micrococcus luteus)",further results
GGSGGGWWNSWGKCV (MICROCOCCUS LUTEUS and CORYNEBACTERIUM JEIKIEUM) [Cj 5],4195000,337000,TNTC,0,0,–
GGSGGIGGVSGGLTG (MICROCOCCUS LUTEUS and CORYNEBACTERIUM JEIKIEUM) [Cj 6],5980000,122000,175000,0,0,–
GGSGGNGVVLTL (MICROCOCCUS LUTEUS and CORYNEBACTERIUM JEIKIEUM) [Cj 1],6055000,65500,40000,175,0,–
GGSGGNRWWQGVVP (MICROCOCCUS LUTEUS and CORYNEBACTERIUM JEIKIEUM) [Cj3],7040000,121500,27000,300,0,–
GGSGGSKKHRKHRKHRKH (also: bound to textile) [pep],–,–,–,–,–,"CFU (Pseudomonas aeruginosa; 2.5 mg/ml pep, 0% PHMB): 0 CFU"
GGSGGSWQHVFT (MICROCOCCUS LUTEUS and CORYNEBACTERIUM JEIKIEUM) [Cj 4],5315000,145000,28000,245,0,–
GGSGGSYSTCDFIM (STAPHYLOCOCCUS AUREUS) [Peptide],–,–,–,–,–,"colonies counted (cells recovered from swatch) (S aureus 27217; peptide 1.75 mg/g): 475000; colonies counted (cells recovered from swatch) (S aureus 27217; peptide 2.5 mg/ml): 0; colonies counted (cells recovered from swatch) (S. aureus 25923; peptide 1.75 mg/g): 4765000; colonies counted (cells recovered from swatch) (S. aureus 25923; peptide 2.5 mg/ml): 0; lowest peptide concentration that will bind the cells (Staphylococcus aureus; both strains): 2.5 mg/mL; binding of cells (in words) (Staphylococcus aureus; both strains, peptide 2.5 mg/ml regardless of the PHMB concentration): completely bound all of the cells; binding of cells (in words) (Staphylococcus aureus; lower peptide concentrations (below 2.5 mg/ml)): may have bound some of the cells, but not all of them; cells recovered (in words) (Staphylococcus aureus; strains 27217 and 25923, peptide present (2.5 mg/ml), PHMB 0 or 0.0008%): no Staphylococcus aureus cell were recovered; binding by the peptide (in words) (S. epidermidis 12228; S. aureus-binding peptide 2.5 mg/ml): does not appear to be any binding; colonies counted (cells recovered from swatch) (S. epidermidis 12228; S. aureus-binding peptide 2.5 mg/ml, PHMB 0%): 693000"
GGSGGTWTKKLK (MICROCOCCUS LUTEUS and CORYNEBACTERIUM JEIKIEUM) [Cj2],7680000,294000,TNTC,0,0,–
